Assay results published in patent US20230279002A1, “Polymorphs of Crystalline Forms of 3,10-dimethoxy-5,8,13,13a-tetrahydro-6H-isoquinolino[3,2-a]isoquinolin-9-yl 3-fluorobenzenesulfonate and Salts Thereof” (CVI Pharmaceuticals Limited, priority 2020, published 2023).

Assays:
Type in all cases: physicochemical
[1] = DVS (Dynamic Vapor Sorption) moisture sorption/desorption, hygroscopicity classification; conditions: 25 °C; for Change In Mass (%) - ref, Desorption / Change In Mass (%) - ref, Sorption / Change In Mass (%) - ref, Hysteresis: Cycle 1
Method: DVS (Dynamic Vapor Sorption): Around 10-20 mg of samples were used to test its moisture sorption/desorption profiles at 25° C. under 0%˜95%˜0% relative humidity (RH) cycle using dm/dt: 0.01%/min equilibrium and a measurement step of 5% RH.
Hygroscopicity Classification: Typical %-moisture gain as a function of increased RH was determined by DVS. Samples went through a dynamic test isothermally at 25° C. The test was divided into 2 processes, one was absorption process, the other was desorption process. RH ranged from 0% to 95% with 5% RH for each step, and when dm/dt<=0.01%, it was assumed the water sorption/desorption equilibrium is reached.

[2] = Solid stability at 40° C./0% RH (closed) and 40° C./75% RH (open), HPLC; conditions: for 0 day % remaining / 5 day % remaining / 10 day % remaining: solid
Method: (§1) Solid stability: 5 mg of 2a was weighed into scintillation vials sealed properly and stored at 40° C./0% RH(closed), 40° C./75% RH(open) under dark conditions to avoid the effect of light on stability. Samples were collected at day 0, 5 and 10 and analyzed by HPLC.
Solid stability: 5 mg of compound was weighed into vials sealed properly and stored at 40° C./0% RH (closed), 40° C./75% RH (open) under dark conditions to avoid the effect of light. Samples were analyzed by HPLC at days 0, 7, and 21.
as §1, with “stability of compound 1a:” for “stability:”, “compound were accurately” for “of 2a was”, “condition” for “conditions”, “should be” for “were”, “10 days” for “10”

[3] = Solution stability in 0.1 N HCl, pH 4.5 buffer and pH 6.8 buffer at 25° C. and 37° C., HPLC; conditions: summary of the Examples
Method: Solution stability: A stock solution of compound (1.0 mg/mL) in MeOH was diluted with 0.1 N HCl, pH 4.5 buffer (acetate) and pH 6.8 buffer to reach constant ionic strength of 0.15 M and the same final concentration (50 μg/mL, 40% MeOH).
A stock solution of 1b and 3b (1.0 mg/mL) in MeOH was diluted with pH 6.8 buffer to reach constant ionic strength of 0.15M and the same final concentration (25 μg/mL, 40% […]).
The solutions were stored at 25° C. and 37° C.

[4] = TGA (Thermal Gravimetric Analysis) weight loss; conditions: for TGA weight loss (in words): room temperature to 120° C.
Method: TGA (Thermal Gravimetric Analysis): Samples of compounds (4˜6 mg) were weighed into the pan, and heated under nitrogen purge using a ramp rate of 20° C./min over the range of 30° C.˜350° C.

- Hygroscopicity classification by DVS [1]: non-hygroscopic
- Change In Mass (%) - ref, Desorption ([1]; Target RH 0.0 %): −0.00505%
- Change In Mass (%) - ref, Sorption ([1]; Target RH 0.0 %): 0.00011%
- Change In Mass (%) - ref, Desorption ([1]; Target RH 5.0 %): −0.0028%
- Change In Mass (%) - ref, Hysteresis ([1]; Target RH 5.0 %): −0.00426%
- Change In Mass (%) - ref, Sorption ([1]; Target RH 5.0 %): 0.00146%
- Change In Mass (%) - ref, Desorption ([1]; Target RH 10.0 %): −0.00101%
- Change In Mass (%) - ref, Hysteresis ([1]; Target RH 10.0 %): −0.0046%
- Change In Mass (%) - ref, Sorption ([1]; Target RH 10.0 %): 0.00359%
- Change In Mass (%) - ref, Desorption ([1]; Target RH 15.0 %): 0.00000%
- Change In Mass (%) - ref, Hysteresis ([1]; Target RH 15.0 %): −0.00527%
- Change In Mass (%) - ref, Sorption ([1]; Target RH 15.0 %): 0.00527%
- Change In Mass (%) - ref, Desorption ([1]; Target RH 20.0 %): 0.00123%
- Change In Mass (%) - ref, Hysteresis ([1]; Target RH 20.0 %): −0.0055%
- Change In Mass (%) - ref, Sorption ([1]; Target RH 20.0 %): 0.00673%
- Change In Mass (%) - ref, Desorption ([1]; Target RH 25.0 %): 0.00247%
- Change In Mass (%) - ref, Hysteresis ([1]; Target RH 25.0 %): −0.00505%
- Change In Mass (%) - ref, Sorption ([1]; Target RH 25.0 %): 0.00752%
- Change In Mass (%) - ref, Desorption ([1]; Target RH 30.0 %): 0.00292%
- Change In Mass (%) - ref, Hysteresis ([1]; Target RH 30.0 %): −0.00527%
- Change In Mass (%) - ref, Sorption ([1]; Target RH 30.0 %): 0.00819%
- Change In Mass (%) - ref, Desorption ([1]; Target RH 35.0 %): 0.00393%
- Change In Mass (%) - ref, Hysteresis ([1]; Target RH 35.0 %): −0.00449%
- Change In Mass (%) - ref, Sorption ([1]; Target RH 35.0 %): 0.00841%
- Change In Mass (%) - ref, Desorption ([1]; Target RH 40.0 %): 0.0055%
- Change In Mass (%) - ref, Hysteresis ([1]; Target RH 40.0 %): −0.00314%
- Change In Mass (%) - ref, Sorption ([1]; Target RH 40.0 %): 0.00864%
- Change In Mass (%) - ref, Desorption ([1]; Target RH 45.0 %): 0.00673%
- Change In Mass (%) - ref, Hysteresis ([1]; Target RH 45.0 %): −0.00202%
- Change In Mass (%) - ref, Sorption ([1]; Target RH 45.0 %): 0.00875%
- Change In Mass (%) - ref, Desorption ([1]; Target RH 50.0 %): 0.00763%
- Change In Mass (%) - ref, Hysteresis ([1]; Target RH 50.0 %): −0.00191%
- Change In Mass (%) - ref, Sorption ([1]; Target RH 50.0 %): 0.00954%
- Change In Mass (%) - ref, Desorption ([1]; Target RH 55.0 %): 0.00853%
- Change In Mass (%) - ref, Hysteresis ([1]; Target RH 55.0 %): −0.00123%
- Change In Mass (%) - ref, Sorption ([1]; Target RH 55.0 %): 0.00976%
- Change In Mass (%) - ref, Desorption ([1]; Target RH 60.0 %): 0.00909%
- Change In Mass (%) - ref, Hysteresis ([1]; Target RH 60.0 %): −0.0009%
- Change In Mass (%) - ref, Sorption ([1]; Target RH 60.0 %): 0.00998%
- Change In Mass (%) - ref, Desorption ([1]; Target RH 65.0 %): 0.00954%
- Change In Mass (%) - ref, Hysteresis ([1]; Target RH 65.0 %): −0.00056%
- Change In Mass (%) - ref, Sorption ([1]; Target RH 65.0 %): 0.0101%
- Change In Mass (%) - ref, Desorption ([1]; Target RH 70.0 %): 0.01066%
- Change In Mass (%) - ref, Hysteresis ([1]; Target RH 70.0 %): 0.00000%
- Change In Mass (%) - ref, Sorption ([1]; Target RH 70.0 %): 0.01066%
- Change In Mass (%) - ref, Desorption ([1]; Target RH 75.0 %): 0.01234%
- Change In Mass (%) - ref, Hysteresis ([1]; Target RH 75.0 %): 0.00056%
- Change In Mass (%) - ref, Sorption ([1]; Target RH 75.0 %): 0.01178%
- Change In Mass (%) - ref, Desorption ([1]; Target RH 80.0 %): 0.01324%
- Change In Mass (%) - ref, Hysteresis ([1]; Target RH 80.0 %): 0.00034%
- Change In Mass (%) - ref, Sorption ([1]; Target RH 80.0 %): 0.0129%
- Change In Mass (%) - ref, Desorption ([1]; Target RH 85.0 %): 0.01481%
- Change In Mass (%) - ref, Hysteresis ([1]; Target RH 85.0 %): 0.0009%
- Change In Mass (%) - ref, Sorption ([1]; Target RH 85.0 %): 0.01391%
- Change In Mass (%) - ref, Desorption ([1]; Target RH 90.0 %): 0.01773%
- Change In Mass (%) - ref, Hysteresis ([1]; Target RH 90.0 %): 0.00146%
- Change In Mass (%) - ref, Sorption ([1]; Target RH 90.0 %): 0.01627%
- Change In Mass (%) - ref, Desorption ([1]; Target RH 95.0 %): 0.02076%
- Change In Mass (%) - ref, Sorption ([1]; Target RH 95.0 %): 0.02076%
- moisture picked up (DVS) ([1]; at 95% RH): about 0.02%
- Solid-state stability (HPLC) ([2]; 40° C./0% RH (closed) and 40° C./75% RH (open), dark, up to 10 days): substantially stable
- 0 day % remaining ([2]; 40° C. (0% RH, closed)): 99.65%
- 5 day % remaining ([2]; 40° C. (0% RH, closed)): 101.65%
- 10 day % remaining ([2]; 40° C. (0% RH, closed)): 100.85%
- 0 day % remaining ([2]; 40° C./75% RH (open)): 99.65%
- 5 day % remaining ([2]; 40° C./75% RH (open)): 100.66%
- 10 day % remaining ([2]; 40° C./75% RH (open)): 101.31%
- Stability compared with other polymorphs (summary) [3]: most stable of the polymorphs
- Temperature until which there is no weight loss ([4]; DSC and TGA): about 150 °C
- TGA weight loss (in words) [4]: almost no weight loss
- TGA weight loss (in words) ([4]; listed as Hydrochloride salt of compound 1a): almost no weight loss
Compound: COc1ccc2c(c1)CCN1Cc3c(ccc(OC)c3OS(=O)(=O)c3cccc(F)c3)C[C@H]21 [Compound 2a]
